Several values for one entry are separate records, joined by “and”; a condition that tells them apart may be missing. Identical values can stand only once. Like-named read-outs stand apart in the source and are kept apart here.
Columns and labels:
Type in all cases: biochemical
recombinant 5-LOX = target: T1, recombinant 5-LOX (Homo sapiens, UniProt P09917); assay: 5-LOX fluorescent assay; conditions: several values in one cell = repeat determinations; read-out: IC50 (μM) values for in vitro lipoxygenase inhibition, 5-LOX
T1 sequence (P09917 1-674): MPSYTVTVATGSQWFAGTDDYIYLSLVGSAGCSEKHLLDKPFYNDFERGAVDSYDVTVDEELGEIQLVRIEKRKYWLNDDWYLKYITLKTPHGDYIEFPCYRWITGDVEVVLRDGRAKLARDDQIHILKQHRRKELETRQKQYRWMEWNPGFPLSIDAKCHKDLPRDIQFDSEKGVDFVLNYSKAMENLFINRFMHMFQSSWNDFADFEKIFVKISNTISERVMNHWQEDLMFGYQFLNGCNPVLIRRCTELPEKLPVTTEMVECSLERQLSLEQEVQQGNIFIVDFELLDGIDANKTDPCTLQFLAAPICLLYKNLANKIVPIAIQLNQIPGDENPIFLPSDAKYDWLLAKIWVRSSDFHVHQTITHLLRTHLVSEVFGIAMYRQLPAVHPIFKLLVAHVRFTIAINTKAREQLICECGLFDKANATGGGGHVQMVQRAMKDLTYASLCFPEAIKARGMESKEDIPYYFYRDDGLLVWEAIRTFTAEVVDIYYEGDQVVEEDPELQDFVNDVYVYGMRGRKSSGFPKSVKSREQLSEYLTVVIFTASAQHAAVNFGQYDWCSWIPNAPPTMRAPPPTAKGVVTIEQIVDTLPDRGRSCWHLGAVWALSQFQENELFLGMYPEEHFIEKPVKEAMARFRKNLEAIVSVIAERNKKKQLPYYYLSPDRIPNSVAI
Protocol: 5-LOX FI assay Fluorescent Assay
The enzyme assay (100 μL) contained 50 mM Tris, pH 7.5, 0.1 mM EDTA, 0.3 mM CaCl2, 20 μM AA, 100 μM ATP, 1 μM DHR123, and recombinant 5-LOX cell lysate (0.5 μL/100 μL). Inhibitors (dissolved in DMSO) were plated at 1 μL into 96-well assay microplates followed by a 40 μL addition of a solution containing 5-LOX enzyme. Enzyme was pre-incubated with compounds for 15 mins. The assay was initiated by the addition of a 40 μL substrate solution containing AA and ATP, and 20 μL addition of a solution containing DHR123. Enzymatic reaction proceeded for 30 min with kinetic reading at 500 nm excitation & 536 nm emission in SpectraMax Paradigm (MolecularDevice). Percent inhibition was calculated for each compound dose for IC50 curve fitting using 4 Parameter Logistic Model or Sigmoidal Dose-Response Model.

[1] = target: T2, recombinant 12-LOX enzyme (Homo sapiens, UniProt P18054); assay: 12-LOX fluorescent assay; conditions: several values in one cell = repeat determinations; read-out: IC50 (μM) values for in vitro lipoxygenase inhibition, 12-LOX
T2 sequence (P18054 1-663): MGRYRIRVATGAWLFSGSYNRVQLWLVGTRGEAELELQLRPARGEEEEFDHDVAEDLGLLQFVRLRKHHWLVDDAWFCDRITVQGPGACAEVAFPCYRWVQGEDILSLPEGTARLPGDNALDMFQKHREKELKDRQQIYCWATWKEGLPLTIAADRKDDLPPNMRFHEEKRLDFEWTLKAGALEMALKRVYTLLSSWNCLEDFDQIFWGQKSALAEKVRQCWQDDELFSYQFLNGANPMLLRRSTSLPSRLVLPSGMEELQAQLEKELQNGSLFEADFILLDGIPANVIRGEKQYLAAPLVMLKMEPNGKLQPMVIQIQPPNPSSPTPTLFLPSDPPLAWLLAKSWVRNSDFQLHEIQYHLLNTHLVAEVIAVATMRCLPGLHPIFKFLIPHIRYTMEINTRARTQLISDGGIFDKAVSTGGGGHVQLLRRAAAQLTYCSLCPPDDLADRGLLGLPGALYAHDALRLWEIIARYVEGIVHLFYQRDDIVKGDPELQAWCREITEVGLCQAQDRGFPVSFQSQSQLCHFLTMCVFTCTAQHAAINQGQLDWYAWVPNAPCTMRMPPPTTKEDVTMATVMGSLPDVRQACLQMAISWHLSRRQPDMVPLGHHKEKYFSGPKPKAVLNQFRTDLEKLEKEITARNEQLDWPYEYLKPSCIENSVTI
Protocol: (§1) 12-LOX/15-LOX Fluorescent Assay
(§2) The enzyme assay (100 ul) contained 50 mM Tris, pH 7.5, 0.05% Tween-20, 20 μM AA/LA, 1 μM DHR123, and 100 nM recombinant 12-LOX enzyme/50 nM recombinant 15-LOX enzyme. Inhibitors (dissolved in DMSO) were plated at 1 μL into 96-well assay microplates followed by a 40 μL addition of a solution containing 12-LOX/15-LOX enzyme. Enzyme was pre-incubated with compounds for 15 mins. The assay was initiated by the addition of a 40 μL substrate solution containing AA/LA, and 20 μL addition of a solution containing DHR123. Enzymatic reaction proceeded for 30 min with kinetic reading at 500 nm excitation & 536 nm emission in SpectraMax Paradigm (MolecularDevice). Percent inhibition was calculated for each compound dose for IC50 curve fitting using 4 Parameter Logistic Model or Sigmoidal Dose-Response Model.

[2] = target: T3, recombinant 15-LOX enzyme (Homo sapiens, UniProt P16050); assay: 15-LOX fluorescent assay; conditions: several values in one cell = repeat determinations
T3 sequence (P16050 1-662): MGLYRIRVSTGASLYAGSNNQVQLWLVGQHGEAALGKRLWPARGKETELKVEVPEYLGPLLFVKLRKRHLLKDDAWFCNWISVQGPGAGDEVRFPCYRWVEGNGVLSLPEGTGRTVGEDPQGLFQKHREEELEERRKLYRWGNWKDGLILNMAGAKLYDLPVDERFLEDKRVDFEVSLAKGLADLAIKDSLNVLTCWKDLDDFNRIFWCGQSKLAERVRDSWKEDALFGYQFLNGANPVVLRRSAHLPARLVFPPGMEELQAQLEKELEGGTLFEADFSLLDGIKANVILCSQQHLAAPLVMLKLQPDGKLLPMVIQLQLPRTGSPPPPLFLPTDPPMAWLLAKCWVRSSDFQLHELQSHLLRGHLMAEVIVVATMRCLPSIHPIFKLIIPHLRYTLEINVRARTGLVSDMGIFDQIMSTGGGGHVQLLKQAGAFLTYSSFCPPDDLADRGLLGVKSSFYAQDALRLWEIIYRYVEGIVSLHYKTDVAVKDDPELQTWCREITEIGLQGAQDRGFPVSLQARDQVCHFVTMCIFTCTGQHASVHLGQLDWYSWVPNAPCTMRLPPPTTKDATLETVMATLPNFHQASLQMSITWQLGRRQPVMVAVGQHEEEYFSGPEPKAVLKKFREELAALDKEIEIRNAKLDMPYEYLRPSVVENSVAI
Protocol: as §1, §2

[3] = read-out: IC50 (μM) values for in vitro lipoxygenase inhibition, 15-LOX
[4] = IC50 (μM) values for in vitro lipoxygenase inhibition, 15-LOX

| Compound | IC50 (recombinant 5-LOX) | IC50 [1] | IC50 [2, 3] | IC50 [2, 4] |
| --- | --- | --- | --- | --- |
| COc1cccc2c1[nH]c1ccc(F)cc12 [SS20308-0002-01, 6-fluoro-1-methoxy-9H-carbazole] | 20.8 µM | 8.04 µM | 4.33 µM |  |
| CN(C)CCOc1c(O)ccc2c1[nH]c1ccc(F)cc12 [SS20308-0004-01, 1-(2-(dimethylamino)ethoxy)-6-fluoro-9H-carbazol-2-ol] |  | 3.19 µM | 2.55 µM |  |
| COc1ccc2c([nH]c3ccc(F)cc32)c1OCCN(C)C [SS20308-0007-01, 2-(6-fluoro-2-methoxy-9H-carbazol-1-yloxy)-N,N-dimethylethanamine] | 32.2 µM | 22 µM |  | 8.64 µM |
| Cc1cc(OCCn2cncn2)c2[nH]c3ccccc3c2c1 [SS20308-0017-01, 1-(2-(1H-1,2,4-triazol-1-yl)ethoxy)-3-methyl-9H-carbazole] | 6.06 µM | 2.85 µM | 3.49 µM |  |
| c1ccc(-c2cc3c([nH]c4ccccc43)c(OCCn3cncn3)n2)cc1 [SS20308-0018-01] | 47 µM | 4.07 µM |  | 1.39 µM |
| CN(C)CCOc1c(Nc2ccccc2)ccc2c1[nH]c1ccc(F)cc12 [SS20308-0032-01, 1-(2-(dimethylamino)ethoxy)-6-fluoro-N-phenyl-9H-carbazol-2-amine] | 0.27 µM | 0.21 µM | 15.9 µM |  |
| CN(C)CCOc1c(NCc2ccccc2)ccc2c1[nH]c1ccc(F)cc12 [SS20308-0036-01, N-benzyl-1-(2-(dimethylamino)ethoxy)-6-fluoro-9H-carbazol-2-amine] | 0.35 µM | 0.4 µM | 0.8 µM |  |
| CN(C)CCOc1cccc2c1-c1[nH]c3ccccc3c1CS2 [SS20308-0046-01, 2-(6,11-dihydrothiochromeno[4,3-b]indol-1-yloxy)-N,N-dimethylethanamine] | 0.63 µM | 0.62 µM | 0.97 µM |  |
| Fc1ccc2[nH]c3cc(-c4ccccc4)c(NCCn4cncn4)cc3c2c1 [SS20308-0094-01, N-(2-(1H-1,2,4-triazol-1-yl)ethyl)-6-fluoro-2-phenyl-9H-carbazol-3-amine] |  | 30 nM and 40 nM (3×) |  |  |
| c1ccc(CN(CCCn2cncn2)c2ccc3[nH]c4ccccc4c3c2)cc1 [SS20308-0097-01, N-(3-(1H-1,2,4-triazol-1-yl)propyl)-N-benzyl-9H-carbazol-3-amine] | 33 µM and > 1 µM |  |  |  |
| CN(C)CCOc1c2[nH]c3ccccc3c2c(F)c2[nH]c3ccccc3c12 [SS20308-0102-01, 2-(12-fluoro-5,11-dihydroindolo[3,2-b]carbazol-6-yloxy)-N,N-dimethylethanamine] |  | 0.05 µM and 0.11 µM |  | 0.02 µM and 0.04 µM |
| CN(C)CCCc1c2[nH]c3ccccc3c2cc2[nH]c3ccccc3c12 [SS20308-0104-01, 3-(5,11-dihydroindolo[3,2-b]carbazol-6-yl)-N,N-dimethylpropan-1-amine] |  |  |  | 0.02 µM |
| c1ccc(N(CCn2cncn2)c2ccc3[nH]c4ccccc4c3c2)cc1 [SS20308-0108-01, N-(2-(1H-1,2,4-triazol-1-yl)ethyl)-N-phenyl-9H-carbazol-3-amine] | 0.55 µM and 0.26 µM and 0.35 µM |  |  | 1 µM and 0.41 µM and 0.86 µM |
| CC(C)CCOc1cc2c3ccccc3[nH]c2c2[nH]c3ccccc3c12 [SS20308-0127-01, 5-(isopentyloxy)-11,12-dihydroindolo[2,3-a]carbazole] |  | 0.09 µM and 0.04 µM and 0.14 µM | 0.12 µM and 0.08 µM and 0.17 µM |  |
| c1ccc(-c2cc3c(cc2NCCn2cncn2)Nc2ccccc2CC3)cc1 [SS20308-0152-01, N-(2-(1H-1,2,4-triazol-1-yl)ethyl)-2-phenyl-10,11-dihydro-5H-dibenzo[b,f]azepin-3-amine] |  | 0.05 µM and 0.08 µM | 0.08 µM and 0.2 µM |  |
| CN(C)CCCc1c2[nH]c3ccc(F)cc3c2c(F)c2[nH]c3ccc(F)cc3c12 [SS20308-0163-01, N,N-dimethyl-3-(2,8,12-trifluoro-5,11-dihydroindolo[3,2-b]carbazol-6-yl)propan-1-amine] | 20 nM (2×) and 40 nM and 50 nM and 10 nM |  |  |  |
| CN(C)CCc1cc(Nc2ccc(Cl)cc2)cc2c1[nH]c1ccccc12 [SS20308-0257-01, N-(4-chlorophenyl)-1-(2-(dimethylamino)ethyl)-9H-carbazol-3-amine] | 0.01 µM and 0.04 µM |  |  |  |
